From US12479830B2, “Homopiperazinyl and homopiperidinyl quinazolin-4(3H)-one derivatives having multimodal activity against pain” (ESTEVE PHARMACEUTICALS, S.A., priority 2019, dated 2025) come the findings set out here.

For assay [1], the target named is Human α2δ-1 subunit of Cav2.2 calcium channel (Homo sapiens, UniProt P54289). In words: Human α2δ-1 subunit of Cav2.2 calcium channel assay ([3H]-gabapentin binding). Conditions: binding to the α2δ-1 subunit of voltage-gated calcium channels, expressed as Ki class; + also covers inhibition between 1% and 50%. In a few lines:
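Human α2δ-1 enriched membranes (2.5 μg) incubated 60 min at 27° C. with 15 nM [3H]-gabapentin in 10 mM Hepes-KOH pH 7.4; non-specific binding with 10 μM pregabalin. Filtration binding; % inhibition at 1 or 10 μM, or Ki from five concentrations.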

The target of the next assay is T1, Human σ1 receptor (Homo sapiens, UniProt Q99720).
T1 construct: expressed in transfected cells; host or cells: HEK-293
T1 sequence (Q99720 whole entry): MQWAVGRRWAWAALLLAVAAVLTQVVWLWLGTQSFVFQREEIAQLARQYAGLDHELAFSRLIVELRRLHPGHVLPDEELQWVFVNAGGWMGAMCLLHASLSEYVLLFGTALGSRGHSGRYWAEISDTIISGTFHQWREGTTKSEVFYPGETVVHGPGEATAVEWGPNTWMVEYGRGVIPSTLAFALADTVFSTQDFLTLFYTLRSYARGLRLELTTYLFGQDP
Briefly: Human σ1 receptor radioligand assay ([3H](+)-pentazocine binding). Conditions: binding to the σ1 receptor, expressed as Ki class; + also covers inhibition between 1% and 50%. In a few lines: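 Membranes (7 μg) were incubated with 5 nM [3H](+)-pentazocine in 50 mM Tris-HCl pH 8 for 120 min at 37° C. Non-specific binding was defined with 10 μM haloperidol. Values are % inhibition at 1 or 10 μM or Ki from five concentrations, read by filtration and scintillation counting.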

The structures appear in SMILES notation.

Chain of Human α2δ-1 subunit of Cav2.2 calcium channel (P54289 25-1103): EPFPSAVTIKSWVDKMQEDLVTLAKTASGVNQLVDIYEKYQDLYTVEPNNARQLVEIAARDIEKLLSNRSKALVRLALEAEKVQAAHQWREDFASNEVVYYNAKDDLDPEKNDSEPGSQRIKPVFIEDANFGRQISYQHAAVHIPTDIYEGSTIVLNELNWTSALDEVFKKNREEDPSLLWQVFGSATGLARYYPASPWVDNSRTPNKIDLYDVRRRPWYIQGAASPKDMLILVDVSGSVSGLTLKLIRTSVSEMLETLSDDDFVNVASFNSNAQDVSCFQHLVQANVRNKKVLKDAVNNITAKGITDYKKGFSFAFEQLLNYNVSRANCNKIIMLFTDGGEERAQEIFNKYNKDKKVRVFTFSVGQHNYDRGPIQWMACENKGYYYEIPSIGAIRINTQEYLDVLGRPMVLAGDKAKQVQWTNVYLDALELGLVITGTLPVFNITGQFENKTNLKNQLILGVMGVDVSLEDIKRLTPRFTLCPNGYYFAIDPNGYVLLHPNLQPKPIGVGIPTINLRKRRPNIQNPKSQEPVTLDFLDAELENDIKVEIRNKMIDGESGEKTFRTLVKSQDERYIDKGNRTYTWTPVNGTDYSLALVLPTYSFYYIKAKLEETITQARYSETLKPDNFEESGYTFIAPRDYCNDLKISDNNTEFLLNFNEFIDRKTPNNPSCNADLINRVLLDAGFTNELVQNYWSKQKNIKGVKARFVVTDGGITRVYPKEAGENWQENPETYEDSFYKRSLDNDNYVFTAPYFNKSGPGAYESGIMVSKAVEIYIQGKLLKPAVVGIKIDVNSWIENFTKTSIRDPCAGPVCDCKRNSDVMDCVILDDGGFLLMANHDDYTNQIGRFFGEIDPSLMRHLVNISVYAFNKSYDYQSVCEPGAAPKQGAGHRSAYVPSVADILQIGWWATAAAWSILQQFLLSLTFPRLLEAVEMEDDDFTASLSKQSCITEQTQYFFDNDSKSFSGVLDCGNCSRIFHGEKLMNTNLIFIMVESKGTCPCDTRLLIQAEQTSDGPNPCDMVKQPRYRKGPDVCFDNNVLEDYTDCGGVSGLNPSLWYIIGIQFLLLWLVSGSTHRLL

Turning to `CCC[C@H](c1nc2cc(F)c(F)cc2c(=O)n1CC)N1CCCN[C@@H](C)C1` [Example 260, 3-ethyl-6,7-difluoro-2-((R)-1-((S)-3-methyl-1,4-diazepan-1-yl)butyl)quinazolin-4(3H)-one], the Ki in assay [1] is less than 0.5 µM; on Human σ1 receptor, greater than 1 µM.

In the case of `CCC[C@H](c1nc2cc(F)c(F)cc2c(=O)n1CC)N1CCCN[C@H](C)C1` [Example 261, 3-ethyl-6,7-difluoro-2-((R)-1-((R)-3-methyl-1,4-diazepan-1-yl)butyl)quinazolin-4(3H)-one], the Ki in assay [1] was less than 0.5 µM; on Human σ1 receptor it was greater than 1 µM.

Turning to `CCC[C@H](c1nc2ccc(Br)cc2c(=O)n1CC)N1CC[C@H](C)N(C)CC1` [Example 262], the results for the Ki (in assay [1]; on Human σ1 receptor) were less than 0.5 µM and 0.5 to 1 µM, respectively.

On to `CCC[C@@H](c1nc2ccc(Br)cc2c(=O)n1CC)N1CC[C@H](C)N(C)CC1` [Example 263], for which the values for the Ki (in assay [1]; at Human σ1 receptor) were greater than 5 µM and greater than 1 µM, respectively.

Regarding `CCCC(c1nc2ccc(F)cc2c(=O)n1CC)C1CCCNCC1` (stereo not drawn) [Example 266, 2-(1-(Azepan-4-yl)butyl)-3-ethyl-6-fluoroquinazolin-4(3H)-one], the Ki in assay [1] is less than 0.5 µM; at Human σ1 receptor it was greater than 1 µM.

`CCCC(c1nc2ccc(F)cc2c(=O)n1CC)C1CCCN(C)CC1` (stereo not drawn) [Example 267, 3-ethyl-6-fluoro-2-(1-(1-methylazepan-4-yl)butyl)quinazolin-4(3H)-one]: the values for the Ki (in assay [1]; on Human σ1 receptor) were less than 0.5 µM and 0.5 to 1 µM, respectively.

In the case of `CCCC(c1nc2ccc(F)cc2c(=O)n1CC)C1CCCN(CC)CC1` (stereo not drawn) [Example 268, 3-ethyl-2-(1-(1-ethylazepan-4-yl)butyl)-6-fluoroquinazolin-4(3H)-one], the values for the Ki (in assay [1]; on Human σ1 receptor) were 0.5 to 5 µM and less than 0.5 µM, respectively.

Regarding `CC[C@@H]1CCn2c(nc3ccc(Br)cc3c2=O)[C@H]1N1CCCN(C)CC1` [Example 269, (6S,7R)-2-Bromo-7-ethyl-6-(4-methyl-1,4-diazepan-1-yl)-8,9-dihydro-6H-pyrido[2,1-b]quinazolin-11(7H)-one], the Ki was greater than 5 µM in assay [1] and 0.5 to 1 µM at Human σ1 receptor.

On to `CC[C@H]1CCn2c(nc3ccc(Br)cc3c2=O)[C@@H]1N1CCCN(C)CC1` [Example 270, (6R,7S)-2-bromo-7-ethyl-6-(4-methyl-1,4-diazepan-1-yl)-8,9-dihydro-6H-pyrido[2,1-b]quinazolin-11(7H)-one], for which the Ki is greater than 5 µM in assay [1] and 0.5 to 1 µM at Human σ1 receptor.
